Results: patent publication US7901692B2, “Nontypeable Haemophilus influenzae virulence factors” (Nationalwide Children's Hospital, Inc., priority 2003, dated 2011)

How the values were obtained:
[1] = system: NTHi sapF::mTn5 mutants; assay: Broth minimal inhibitory concentration (MIC) analysis for protamine; assay type: cell-based, nontypeable Haemophilus influenzae
Description: To ensure no secondary mutation in the original sapF::mTn5 mutant contributed to the various phenotypes of this mutant, the parent strain 86-028NP was transformed with the 6 kb EcoRV fragment containing the sapF::mTn5 allele from the pBlueA1 plasmid. The wild type sapF gene was replaced in this strain by homologous recombination with the sapF::mTn5 allele. One Km resistant clone was confirmed to harbor a miniTn5 interrupted sapF gene by PCR and Southern blot analysis. This clone was further characterized together with the sapF::mTn5 strain and designated RcsapF::mTn5.
(§1) Since the sap mutants of S. typhimurium and E. chrysanthemi were reported to be hypersensitive to certain antimicrobial peptides, sensitivity to several commercial available cationic peptides against the NTHi parent and the sapF mutant strains was analyzed. […] Broth minimal inhibitory concentration (MIC) analyses for protamine determined that the MIC of protamine for the sapF::mTn5 mutants was lower than that for the parent strain (0.2 mg/ml versus 0.4 mg/ml). […] Thus, the sapF gene product is not required for growth in enriched media, and the lack of growth of the sapF mutants at the lower protamine concentrations in sBHI broth was not due to a growth defect. Therefore, the sapF mutation may be responsible for the phenotype of increased sensitivity to protamine, and the in vivo attenuation property of the sapF mutant.

[2] = system: NTHi parent strain 86-028NP; assay: as above; assay type: cell-based, nontypeable Haemophilus influenzae; conditions: aerobic growth in sBHI broth
Protocol: as §1

## protamine
[1]; sapF::mTn5 mutant, more sensitive (relative to parent strain)
  sensitivity of mutant to the action of protamine: 3 fold
[1]; sapF::mTn5 mutants, aerobic growth in sBHI broth
  MIC of protamine: 200 µg/mL
[2]
  MIC of protamine: 400 µg/mL
